In brackets after ≈: the same amount, converted by molar mass.
Legend:
Type in all cases: functional
[1] = tested on: Staphylococcus aureus; test: Antimicrobial activity against Staphylococcus aureus RN4220 expressing pCU1:fusB gene
[2] = tested on: Staphylococcus aureus; test: Antimicrobial activity against Staphylococcus aureus CS805
[3] = tested on: Staphylococcus aureus; test: Antimicrobial activity against Staphylococcus aureus CS1083
[4] = tested on: Staphylococcus aureus; test: Antimicrobial activity against Staphylococcus aureus RN4220 expressing pAJ96:fusB
[5] = tested on: Staphylococcus aureus; test: Antimicrobial activity against Staphylococcus aureus CS992
[6] = tested on: Staphylococcus aureus; test: Antimicrobial activity against Staphylococcus aureus CS1076
[7] = tested on: Staphylococcus aureus; test: Antimicrobial activity against Staphylococcus aureus CS602
[8] = tested on: Staphylococcus aureus; test: Antimicrobial activity against Staphylococcus aureus RN4220 expressing (pAJ96:SAS0043) (fusC) gene
[9] = tested on: Staphylococcus lugdunensis; test: Antimicrobial activity against Staphylococcus lugdunensis 16496
[10] = tested on: Staphylococcus intermedius; test: Antimicrobial activity against Staphylococcus intermedius CL2
[11] = tested on: Staphylococcus aureus; test: Antimicrobial activity against Staphylococcus aureus CS957
[12] = tested on: Staphylococcus aureus; test: Antimicrobial activity against Staphylococcus aureus
[13] = tested on: Staphylococcus aureus; test: Antimicrobial activity against Staphylococcus aureus CS730
[14] = tested on: Staphylococcus aureus; test: Antimicrobial activity against Staphylococcus aureus RN4220 expressing (pCU1:SAS0043) (fusC) gene
[15] = tested on: Staphylococcus aureus; test: Antimicrobial activity against Staphylococcus aureus RN4220 expressing pAJ96
[16] = tested on: Staphylococcus saprophyticus; test: Antimicrobial activity against Staphylococcus saprophyticus ATCC 15305
[17] = tested on: Staphylococcus aureus; test: Antimicrobial activity against Staphylococcus aureus CS860
[18] = tested on: Staphylococcus aureus; test: Antimicrobial activity against Staphylococcus aureus RN4220 expressing (pCU1:SSP2165) (fusD) gene
[19] = tested on: Staphylococcus lugdunensis; test: Antimicrobial activity against Staphylococcus lugdunensis 40869
[20] = tested on: Staphylococcus aureus; test: Antimicrobial activity against Staphylococcus aureus CS851
[21] = tested on: Staphylococcus aureus; test: Antimicrobial activity against Staphylococcus aureus CS866
[22] = tested on: Staphylococcus aureus; test: Antimicrobial activity against Staphylococcus aureus 649 expressing pUB101
[23] = tested on: Staphylococcus aureus; test: Antimicrobial activity against Staphylococcus aureus RN4220 expressing pCU1 gene
[24] = tested on: Staphylococcus intermedius; test: Antimicrobial activity against Staphylococcus intermedius NCTC 11048
[25] = tested on: Staphylococcus aureus; test: Antimicrobial activity against Staphylococcus aureus CS1128
[26] = tested on: Staphylococcus aureus; test: Antimicrobial activity against Staphylococcus aureus RN4220 expressing (pAJ96:SSP2165) (fusD) gene
[27] = tested on: Staphylococcus aureus; test: Antimicrobial activity against methicillin-susceptible Staphylococcus aureus 476
[28] = tested on: Staphylococcus intermedius; test: Antimicrobial activity against Staphylococcus intermedius CL1
[29] = tested on: Staphylococcus aureus; test: Antimicrobial activity against Staphylococcus aureus CS808
[30] = tested on: Staphylococcus lugdunensis; test: Antimicrobial activity against Staphylococcus lugdunensis 16641
[31] = tested on: Staphylococcus aureus; test: Antimicrobial activity against Staphylococcus aureus CS979
[32] = tested on: Staphylococcus lugdunensis; test: Antimicrobial activity against Staphylococcus lugdunensis 31440
[33] = tested on: Staphylococcus aureus; test: Antimicrobial activity against Staphylococcus aureus RN4220

## CC(=O)O[C@H]1C[C@@]2(C)[C@@H](C[C@@H](O)[C@H]3[C@@]4(C)CC[C@@H](O)[C@@H](C)[C@@H]4CC[C@@]32C)/C1=C(\CCC=C(C)C)C(=O)O [FUSIDIC ACID]
[1]
  MIC: 16 µg/mL (≈ 31 µM)
[2]
  MIC: 8 µg/mL (≈ 15.5 µM)
[3]
  MIC: 4 µg/mL (≈ 7.74 µM)
[4]
  MIC: 32 µg/mL (≈ 61.9 µM)
[5]
  MIC: 2 µg/mL (≈ 3.87 µM)
[6]
  MIC: 8 µg/mL (≈ 15.5 µM)
[7]
  MIC: 4 µg/mL (≈ 7.74 µM)
[8]
  MIC: 16 µg/mL (≈ 31 µM)
[9]
  MIC: 4 µg/mL (≈ 7.74 µM)
[10]
  MIC: 4 µg/mL (≈ 7.74 µM)
[11]
  MIC: 3 µg/mL (≈ 5.81 µM)
[12]
  MIC: 4 µg/mL (≈ 7.74 µM)
[13]
  MIC: 3 µg/mL (≈ 5.81 µM)
[14]
  MIC: 16 µg/mL (≈ 31 µM)
[15]
  MIC: 0.125 µg/mL (≈ 0.242 µM)
[16]
  MIC: 2 µg/mL (≈ 3.87 µM)
[17]
  MIC: 8 µg/mL (≈ 15.5 µM)
[18]
  MIC: 2 µg/mL (≈ 3.87 µM)
[19]
  MIC: 0.064 µg/mL (≈ 0.124 µM)
[20]
  MIC: 4 µg/mL (≈ 7.74 µM)
[21]
  MIC: 3 µg/mL (≈ 5.81 µM)
[22]
  MIC: 16 µg/mL (≈ 31 µM)
[23]
  MIC: 0.125 µg/mL (≈ 0.242 µM)
[24]
  MIC: 0.064 µg/mL (≈ 0.124 µM)
[25]
  MIC: 4 µg/mL (≈ 7.74 µM)
[26]
  MIC: 4 µg/mL (≈ 7.74 µM)
[27]
  MIC: 8 µg/mL (≈ 15.5 µM)
[28]
  MIC: 4 µg/mL (≈ 7.74 µM)
[29]
  MIC: 3 µg/mL (≈ 5.81 µM)
[30]
  MIC: 4 µg/mL (≈ 7.74 µM)
[31]
  MIC: 4 µg/mL (≈ 7.74 µM)
[32]
  MIC: 4 µg/mL (≈ 7.74 µM)
[33]
  MIC: 0.125 µg/mL (≈ 0.242 µM)
